Laboratory results published in article PMC2248166, “Quantitative peptide binding motifs for 19 human and mouse MHC class I molecules derived using positional scanning combinatorial peptide libraries” (Immunome Research, 2008).
Where a SMILES comes first, the peptide text is derived from it.

How the values were obtained:
Experiment in all cases: biochemical
Type in all cases: binding
HLA A*3201 = HLA A*3201 (Homo sapiens, UniProt P04439, A270S/D101S/D185E/E176V/E277Q/F133L/G103R/G107R/G231S/H175R/I121M/I218V/I322F/K168Q/L105A/L300P/L318F/M331R/P208A/P217A/Q94H/R106L/R138Q/S129P/T104I/T323A/T345S/V100E/V321M/V358M)
HLA B*1501 = HLA B*1501 (Homo sapiens, UniProt P01889, A329T/A93T/A95T/C349S/D201E/D98Y/E187L/E204Q/E69M/E70A/K202T/N87E/Q94N/R155S/R180W/S121R/S35A/S48A/V306I/V36M/Y140S/Y91S)
HLA B*1503 = HLA B*1503 (Homo sapiens, UniProt P01889, A329T/A93T/A95T/C349S/D201E/D98Y/E187L/E204Q/K202T/N87E/Q94N/R155S/R180L/S121R/S35A/V306I/V36M/Y140S/Y91S)
HLA A*3001 = HLA A*3001 (Homo sapiens, UniProt P04439, D140H/D185E/E176W/F33S/G80R/H175R/K168Q/R138E/R41S)
Chain of HLA A*3001 (P04439 25-365 limits assumed, stated change not applied): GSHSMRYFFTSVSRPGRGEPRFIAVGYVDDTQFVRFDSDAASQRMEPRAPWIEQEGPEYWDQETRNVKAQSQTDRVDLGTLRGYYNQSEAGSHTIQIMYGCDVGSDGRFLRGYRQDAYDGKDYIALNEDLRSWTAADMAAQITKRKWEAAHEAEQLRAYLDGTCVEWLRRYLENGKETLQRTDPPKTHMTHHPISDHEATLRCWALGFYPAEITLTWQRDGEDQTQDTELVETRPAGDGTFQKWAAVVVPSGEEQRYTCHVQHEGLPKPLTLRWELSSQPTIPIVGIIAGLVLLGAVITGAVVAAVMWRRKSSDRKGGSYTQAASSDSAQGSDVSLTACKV

Row | SMILES | IC50 (HLA A*3201) | IC50 (HLA B*1501) | IC50 (HLA B*1503) | IC50 (HLA A*3001)
1 | CC(C)C[C@H](NC(=O)[C@@H](N)CCCCN)C(=O)N[C@@H](CC(N)=O)C(=O)N[C@@H](CC(N)=O)C(=O)N[C@H](C(=O)N[C@@H](Cc1ccccc1)C(=O)N[C@@H](Cc1ccc(O)cc1)C(=O)N[C@H](C(=O)N[C@@H](Cc1ccccc1)C(=O)O)C(C)C)C(C)C [3102.1169] (H-KLNNVFYVF-OH) | 0.52 nM | 1.2 nM |  | 
2 | CC[C@H](C)[C@H](NC(=O)[C@@H](N)CCSC)C(=O)N[C@@H](Cc1ccccc1)C(=O)N[C@@H](Cc1ccccc1)C(=O)N[C@@H](CC(N)=O)C(=O)N1CCC[C@H]1C(=O)N[C@H](C(=O)N[C@@H](CO)C(=O)N[C@@H](Cc1ccccc1)C(=O)O)C(C)C [3102.0841] (H-MIFFNPVSF-OH) | 0.46 nM | 9.4 nM |  | 
3 | CC[C@H](C)[C@H](N)C(=O)N[C@@H](CCSC)C(=O)N[C@@H](Cc1ccccc1)C(=O)N[C@@H](CO)C(=O)N[C@@H](CCCCN)C(=O)N[C@@H](CO)C(=O)N[C@@H](CC(C)C)C(=O)N[C@@H](CC(N)=O)C(=O)N[C@@H](Cc1ccccc1)C(=O)O [3102.1204] (H-IMFSKSLNF-OH) | 15 nM |  | 0.23 nM | 
4 | CC[C@H](C)[C@H](NC(=O)[C@@H](NC(=O)[C@@H](N)CCCCN)[C@@H](C)O)C(=O)N[C@@H](Cc1ccc(O)cc1)C(=O)N[C@@H](C)C(=O)N[C@H](C(=O)N[C@@H](CC(=O)O)C(=O)N[C@@H](CO)C(=O)N[C@@H](Cc1ccccc1)C(=O)O)C(C)C [3102.0340] (H-KTIYAVDSF-OH) | 6.8 nM | 4 nM |  | 
5 | CC[C@H](C)[C@H](NC(=O)[C@@H](NC(=O)[C@@H](N)CC(C)C)[C@@H](C)CC)C(=O)N[C@H](C(=O)N[C@@H](CCCCN)C(=O)N[C@H](C(=O)N[C@@H](Cc1ccccc1)C(=O)N[C@@H](CO)C(=O)N[C@@H](Cc1ccccc1)C(=O)O)C(C)C)[C@@H](C)O [3102.1011] (H-LIITKVFSF-OH) | 84 nM | 7.7 nM |  | 
6 | CC(C)C[C@H](NC(=O)[C@@H](NC(=O)[C@H](CC(N)=O)NC(=O)[C@H](C)NC(=O)[C@H](CC(N)=O)NC(=O)[C@H](Cc1ccc(O)cc1)NC(=O)[C@H](Cc1ccccc1)NC(=O)[C@H](CCC(N)=O)NC(=O)[C@@H](N)CCCNC(=N)N)C(C)C)C(=O)O [3102.1205] (H-RQFYNANVL-OH) | 37 nM |  | 0.24 nM | 
7 | CC[C@H](C)[C@H](N)C(=O)N[C@H](C(=O)N[C@@H](Cc1ccc(O)cc1)C(=O)N[C@@H](CO)C(=O)N[C@@H](CC(C)C)C(=O)N[C@H](C(=O)N[C@H](C(=O)N[C@H](C(=O)N[C@H](C(=O)O)[C@@H](C)CC)[C@@H](C)O)[C@@H](C)O)C(C)C)C(C)C [3102.0292] (H-IVYSLVTTI-OH) | 3.6 nM |  |  | 16 nM
8 | CC[C@H](C)[C@H](NC(=O)[C@@H](NC(=O)[C@@H]1CCCN1C(=O)[C@H](CC(C)C)NC(=O)[C@H](Cc1ccccc1)NC(=O)[C@H](CO)NC(=O)[C@H](CCSC)NC(=O)[C@@H](N)CCCCN)[C@@H](C)CC)C(=O)N[C@@H](Cc1ccccc1)C(=O)O [3102.1291] (H-KMSFLPIIF-OH) | 6.7 nM |  | 0.08 nM | 
9 | CC[C@H](C)[C@H](N)C(=O)N[C@H](C(=O)N[C@@H](Cc1ccccc1)C(=O)N[C@@H](CCSC)C(=O)N[C@@H](CC(N)=O)C(=O)N[C@@H](CC(C)C)C(=O)N[C@@H](Cc1ccc(O)cc1)C(=O)N[C@@H](CO)C(=O)N[C@@H](Cc1ccccc1)C(=O)O)[C@@H](C)CC [3102.1328] (H-IIFMNLYSF-OH) | 1.3 nM |  | 11 nM | 
10 | CC[C@H](C)[C@H](NC(=O)[C@H](C)NC(=O)[C@H](Cc1ccccc1)NC(=O)[C@H](CCC(N)=O)NC(=O)[C@@H](N)Cc1c[nH]c2ccccc12)C(=O)N[C@@H](Cc1c[nH]cn1)C(=O)N[C@@H](Cc1ccc(O)cc1)C(=O)N[C@@H](CO)C(=O)N[C@@H](Cc1ccccc1)C(=O)O [3102.1096] (H-WQFAIHYSF-OH) | 2.8 nM |  | 4.5 nM | 
11 | CC[C@H](C)[C@H](N)C(=O)N[C@@H](CC(C)C)C(=O)N[C@@H](CCSC)C(=O)N[C@H](C(=O)N[C@@H](Cc1ccccc1)C(=O)N[C@H](C(=O)N[C@@H](CO)C(=O)N[C@@H](CO)C(=O)N[C@@H](Cc1ccccc1)C(=O)O)[C@@H](C)CC)[C@@H](C)CC [3102.1302] (H-ILMIFISSF-OH) | 87 nM |  | 12 nM | 
12 | CC[C@H](C)[C@H](NC(=O)[C@H](CCCCN)NC(=O)[C@H](Cc1ccc(O)cc1)NC(=O)[C@H](Cc1ccccc1)NC(=O)[C@H](CCSC)NC(=O)[C@H](Cc1ccc(O)cc1)NC(=O)[C@H](CCC(N)=O)NC(=O)[C@@H](N)CCCNC(=N)N)C(=O)N[C@@H](Cc1ccccc1)C(=O)O [3102.1055] (H-RQYMFYKIF-OH) | 19 nM |  | 0.07 nM | 
13 | CC[C@H](C)[C@H](N)C(=O)N[C@@H](CCSC)C(=O)N[C@@H](Cc1ccccc1)C(=O)N[C@@H](C)C(=O)N[C@@H](CCCCN)C(=O)N[C@H](C(=O)N[C@@H](CC(C)C)C(=O)N[C@@H](CC(=O)O)C(=O)N[C@@H](Cc1ccccc1)C(=O)O)[C@@H](C)O [3102.1190] (H-IMFAKTLDF-OH) | 6.8 nM |  | 0.31 nM | 
14 | CC(C)[C@H](NC(=O)[C@H](Cc1ccccc1)NC(=O)[C@@H](NC(=O)[C@H](Cc1c[nH]cn1)NC(=O)[C@H](CCC(=O)O)NC(=O)[C@H](CCCNC(=N)N)NC(=O)[C@@H](NC(=O)[C@@H](N)CCCCN)C(C)C)[C@@H](C)O)C(=O)N[C@@H](CCCCN)C(=O)O [3102.0071] (H-KVREHTFVK-OH) | 149 nM |  |  | 2.1 nM
15 | CSCC[C@H](NC(=O)[C@H](Cc1ccc(O)cc1)NC(=O)[C@H](CC(C)C)NC(=O)[C@@H](N)CC(C)C)C(=O)N[C@@H](Cc1ccccc1)C(=O)N1CCC[C@H]1C(=O)N[C@@H](CC(N)=O)C(=O)N[C@@H](CC(C)C)C(=O)N[C@@H](Cc1ccccc1)C(=O)O [3102.1335] (H-LLYMFPNLF-OH) | 90 nM |  | 0.11 nM | 
16 | CC[C@H](C)[C@H](NC(=O)[C@H](Cc1ccc(O)cc1)NC(=O)[C@H](Cc1c[nH]c2ccccc12)NC(=O)[C@H](CCSC)NC(=O)[C@@H](N)CO)C(=O)N1CCC[C@H]1C(=O)N[C@@H](CC(N)=O)C(=O)N[C@H](C(=O)N[C@@H](Cc1ccccc1)C(=O)O)C(C)C [3102.1192] (H-SMWYIPNVF-OH) | 5.1 nM |  | 0.72 nM | 
17 | CC[C@H](C)[C@H](N)C(=O)N[C@H](C(=O)N[C@@H](Cc1ccc(O)cc1)C(=O)N1CCC[C@H]1C(=O)N[C@@H](CCCCN)C(=O)N[C@@H](C)C(=O)N[C@@H](CC(C)C)C(=O)N[C@H](C(=O)N[C@@H](Cc1ccccc1)C(=O)O)C(C)C)[C@@H](C)O [3102.0405] (H-ITYPKALVF-OH) | 3 nM |  |  | 
18 | CC[C@H](C)[C@H](NC(=O)[C@H](CO)NC(=O)[C@@H](NC(=O)CNC(=O)[C@H](CC(C)C)NC(=O)[C@@H](NC(=O)[C@H](CO)NC(=O)[C@H](CCSC)NC(=O)[C@@H](N)CCCCN)[C@@H](C)CC)C(C)C)C(=O)O [3102.0388] (H-KMSILGVSI-OH) | 2.4 nM |  |  | 
19 | CC[C@H](C)[C@H](NC(=O)[C@H](Cc1ccc(O)cc1)NC(=O)[C@H](CC(C)C)NC(=O)[C@H](CO)NC(=O)[C@@H](N)CCCCN)C(=O)N[C@H](C(=O)N[C@@H](CC(N)=O)C(=O)N[C@H](C(=O)N[C@@H](CC(C)C)C(=O)O)[C@@H](C)O)[C@@H](C)O [3102.0459] (H-KSLYITNTL-OH) | 0.52 nM |  |  | 
20 | CC[C@H](C)[C@H](NC(=O)[C@@H](NC(=O)[C@H](CC(C)C)NC(=O)[C@H](CO)NC(=O)[C@H](CCC(N)=O)NC(=O)[C@H](Cc1ccccc1)NC(=O)[C@H](CC(=O)O)NC(=O)[C@H](CCC(N)=O)NC(=O)[C@H](C)N)[C@@H](C)O)C(=O)O [3102.0299] (H-AQDFQSLTI-OH) | 68 nM |  |  | 
